The subject of the test is SW480. Briefly: drug sensitivity score (DSS, integrated dose-response area); higher = more sensitive (stronger viability reduction); extreme values may be limits of the assay. The procedure, abridged:
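After 7 days of induction with 0.1 µg/mL doxycycline, SW480 cells stably harbouring inducible control or SND1-targeting shRNA were plated at 1000 cells per well in 384-well plates preloaded with 525 small-molecule inhibitors at five concentrations. CellTiter-Glo viability readings were taken 72 h later. Drug sensitivity scores come from integrating the area under a fitted non-linear dose–response model.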

[1] abbreviates: shRNA: SND1 shRNA1 (SND1 silenced).
The mark [2] stands for this setting: shRNA: SND1 shRNA2 (SND1 silenced).
Setting [3] is: shRNA: control shRNA (non-targeting).

Here are results for 40 molecules from the supplement of paper PMC9265050, “Inhibition of RNA Binding in SND1 Increases the Levels of miR-1-3p and Sensitizes Cancer Cells to Navitoclax” (Cancers, 2022).

Molecules are shown by their SMILES.

Turning to `CS(=O)(=O)N1CCc2c(-c3cnc(N)nc3)nc(N3CCOCC3)nc21`, the drug sensitivity score stood at 7 DSS under setting [1], 6.4 DSS under setting [2] and 4.2 DSS under setting [3].
As for `Clc1ccc(Nc2nnc(Cc3ccncc3)c3ccccc23)cc1` [Vatalanib], the drug sensitivity score runs as follows: under setting [1], 1.8 DSS; under setting [2], 6.5 DSS; under setting [3], 2 DSS.
Turning to `O=NN(CCCl)C(=O)NC1CCCCC1` [Lomustine], the drug sensitivity score is 0 DSS under setting [1], 0 DSS under setting [2] and 0 DSS under setting [3].
Turning to `FC(F)c1nc2ccccc2n1-c1nc(N2CCOCC2)nc(N2CCOCC2)n1` [ZSTK474], the drug sensitivity score was 7.3 DSS under setting [1], 5.1 DSS under setting [2] and 4 DSS under setting [3].
As for `C[C@]12CC[C@@H]3c4ccc(OC(=O)N(CCCl)CCCl)cc4CC[C@H]3[C@@H]1CC[C@@H]2O` [Estramustine], the drug sensitivity score was found to be 0 DSS under setting [1] and 0 DSS under setting [3].
Consider `COc1cc2c(N3CCN(C(=O)Nc4ccc(OC(C)C)cc4)CC3)ncnc2cc1OCCCN1CCCCC1` [Tandutinib], for which the drug sensitivity score under setting [1] turned out to be 0.5 DSS, the drug sensitivity score under setting [2] is 4.3 DSS and the drug sensitivity score under setting [3] was found to be 3 DSS.
With `COc1ccc(-c2nc(N3CCOCC3)c3sc(CN(C)c4ncc(C(=O)NO)cn4)cc3n2)cn1` [CUDC-907], the drug sensitivity score amounted to 40.7 DSS under setting [1], 33.9 DSS under setting [2] and 34.2 DSS under setting [3].
As to `Cn1cncc1[C@@](N)(c1ccc(Cl)cc1)c1ccc2c(c1)c(-c1cccc(Cl)c1)cc(=O)n2C` [Tipifarnib], the drug sensitivity score was 8.8 DSS under setting [1], 8.7 DSS under setting [2] and 10.2 DSS under setting [3].
For the molecule `Cc1ccc(F)c(NC(=O)Nc2ccc(-c3cccc4[nH]nc(N)c34)cc2)c1` [Linifanib], the drug sensitivity score runs as follows: under setting [1], 0 DSS; under setting [2], 0 DSS; under setting [3], 0 DSS.
As to `CCN(CC)CCN(Cc1ccc(-c2ccc(C(F)(F)F)cc2)cc1)C(=O)Cn1c(SCc2ccc(F)cc2)nc(=O)c2c1CCC2` [Darapladib], the drug sensitivity score reads like this: under setting [1], 0.1 DSS; under setting [2], 0 DSS; under setting [3], 5.8 DSS.
As to `CN(c1ncccc1CNc1nc(Nc2ccc3c(c2)CC(=O)N3)ncc1C(F)(F)F)S(C)(=O)=O`, the drug sensitivity score is 4.9 DSS under setting [1], 3.5 DSS under setting [2] and 3.4 DSS under setting [3].
For `COc1cc(Nc2ncc3c(n2)-c2ccc(Cl)cc2C(c2c(F)cccc2OC)=NC3)ccc1C(=O)O` [Alisertib], the drug sensitivity score runs as follows: under setting [1], 12.6 DSS; under setting [2], 4.4 DSS; under setting [3], 6.5 DSS.
For `N#Cc1ccc(COC[C@H]2O[C@@H](n3c(NCc4ccc(Cl)c(Cl)c4)nc4c(N)ncnc43)[C@H](O)[C@@H]2O)cc1`, in that order: 0 DSS, 0 DSS and 0.1 DSS.
As for `Cc1cn(-c2cc(NC(=O)c3ccc(C)c(Nc4nccc(-c5cccnc5)n4)c3)cc(C(F)(F)F)c2)cn1` [Nilotinib], the drug sensitivity score reads like this: under setting [1], 2.6 DSS; under setting [2], 3.8 DSS; under setting [3], 1.6 DSS.
For `C[C@H](Nc1ncnc2nc[nH]c12)c1cc2cccc(Cl)c2c(=O)n1-c1ccccc1` [Duvelisib], in that order: 0.6 DSS, 3 DSS and 5.5 DSS.
Regarding `COc1ccc(Cl)c(Nc2nc3ccccc3nc2NS(=O)(=O)c2cccc(NC(=O)C(C)(C)N)c2)c1` [Pilaralisib], the drug sensitivity score reads like this: under setting [1], 0.8 DSS; under setting [2], 0.7 DSS; under setting [3], 0.8 DSS.
With `COc1ccccc1S(=O)(=O)Nc1ccc2c(c1)CN(C)C(=O)N2` [PFI-1], the drug sensitivity score is, setting by setting: under setting [1], 1.8 DSS; under setting [2], 0.5 DSS; under setting [3], 0.4 DSS.
Consider `Cn1cc(C2=Nc3cc(NC(=O)C(N)C4CCCCC4)cc4c3C2=CNNC4=O)cn1` (stereo not drawn), for which the drug sensitivity score by setting is: under setting [1], 8.3 DSS; under setting [2], 8.3 DSS; under setting [3], 10.7 DSS.
With `O=c1ncn2nc(Sc3ccc(F)cc3F)ccc2c1-c1c(Cl)cccc1Cl` [VX 745], the drug sensitivity score under setting [1] came out at 1.4 DSS and the drug sensitivity score under setting [3] was 3.4 DSS.
As for `CCn1c(-c2nonc2N)nc2cnc(Oc3cccc(NC(=O)c4ccc(OCCN5CCOCC5)cc4)c3)cc21`, the drug sensitivity score under setting [1] is 4.8 DSS, the drug sensitivity score under setting [2] turned out to be 5.2 DSS and the drug sensitivity score under setting [3] was found to be 5.5 DSS.
Consider `CO[C@H]1/C=C\C=C(/C)C(=O)NC2=CC(=O)C(NCCN(C)C)=C(C[C@@H](C)C[C@H](OC)[C@H](O)[C@@H](C)/C=C(\C)[C@@H]1OC(N)=O)C2=O` [Alvespimycin], for which the drug sensitivity score runs as follows: under setting [1], 7 DSS; under setting [2], 6 DSS; under setting [3], 7.9 DSS.
For `CC(C)(C)c1cnc(CSc2cnc(NC(=O)C3CCNCC3)s2)o1` [SNS-032], in that order: 18.1 DSS, 15 DSS and 16.5 DSS.
In the case of `O=c1cc(N2CCOCC2)oc2c(-c3ccccc3)cccc12`, the drug sensitivity score is 8.9 DSS under setting [1], 9.9 DSS under setting [2] and 8.3 DSS under setting [3].
For the molecule `CNC(=O)[C@@H](NC(=O)[C@H](CC(C)C)[C@H](O)C(=O)NO)C(C)(C)C` [Marimastat], the drug sensitivity score under setting [1] worked out at 0 DSS, the drug sensitivity score under setting [2] is 0 DSS and the drug sensitivity score under setting [3] amounted to 0 DSS.
`C=CC(=O)N1CCC[C@@H](n2nc(-c3ccc(Oc4ccccc4)cc3)c3c(N)ncnc32)C1` [Ibrutinib]: the drug sensitivity score runs as follows: under setting [1], 0 DSS; under setting [2], 0.6 DSS; under setting [3], 0 DSS.
As for `CN(C)C1CCN(C(=O)c2ccc(NC(=O)Nc3ccc(-c4nc(N5CCOCC5)nc(N5CCOCC5)n4)cc3)cc2)CC1` [Gedatolisib], the drug sensitivity score by setting is: under setting [1], 4.2 DSS; under setting [2], 9.6 DSS; under setting [3], 10.3 DSS.
As to `C[C@]12O[C@H](C[C@]1(O)CO)n1c3ccccc3c3c4c(c5c6ccccc6n2c5c31)CNC4=O` [Lestaurtinib], the drug sensitivity score came to 6.8 DSS under setting [1], 7.1 DSS under setting [2] and 8.3 DSS under setting [3].
For `CC(C)n1cnc2c(NCCc3ccc(O)cc3)nc(-c3csc4ccccc34)nc21` [StemRegenin 1], in that order: 1.3 DSS, 1 DSS and 0.8 DSS.
On to `CC(C)N(C[C@H]1O[C@@H](n2cnc3c(N)ncnc32)[C@H](O)[C@@H]1O)[C@H]1C[C@@H](CCc2nc3cc(C(C)(C)C)ccc3[nH]2)C1` [Pinometostat], for which the drug sensitivity score by setting is: under setting [1], 0 DSS; under setting [2], 2.6 DSS; under setting [3], 0 DSS.
On to `CN(CC(=O)N(Cc1ccc(C2CCCCC2)cc1)c1ccc(C(=O)O)cc1)S(=O)(=O)c1c(F)c(F)c(F)c(F)c1F` [SH-4-54], for which the drug sensitivity score reads like this: under setting [1], 9.8 DSS; under setting [2], 8.6 DSS; under setting [3], 9.5 DSS.
The matching figures for `C[C@@H](C(=O)O)c1ccc(-c2ccccc2)c(F)c1` [Tarenflurbil]: 0 DSS, 0 DSS and 0 DSS.
In the case of `Cc1ccc(-c2cc(C(F)(F)F)nn2-c2ccc(S(N)(=O)=O)cc2)cc1` [Celecoxib], the drug sensitivity score runs as follows: under setting [1], 0 DSS; under setting [2], 0 DSS; under setting [3], 0 DSS.
With `NC[C@@](O)(c1ccc(Cl)cc1)c1ccc(-c2cn[nH]c2)cc1`, the drug sensitivity score reads like this: under setting [1], 8 DSS; under setting [2], 4.7 DSS; under setting [3], 10.2 DSS.
`CO[C@@H](C(=O)N1Cc2[nH]nc(NC(=O)c3ccc(N4CCN(C)CC4)cc3)c2C1)c1ccccc1` [Danusertib]: the drug sensitivity score is, setting by setting: under setting [1], 6.5 DSS; under setting [2], 4.7 DSS; under setting [3], 4.9 DSS.
For `O=C(Nc1ccc(OC(F)(F)F)cc1)c1sccc1NCc1ccnc2ccccc12` [OSI-930], in that order: 1.8 DSS, 6.5 DSS and 6.3 DSS.
With `CO[C@H](C(=O)[C@@H](O)[C@@H](C)O)[C@@H]1Cc2cc3cc(O[C@H]4C[C@@H](O[C@@H]5C[C@@H](O)[C@H](O)[C@@H](C)O5)[C@H](O)[C@@H](C)O4)c(C)c(O)c3c(O)c2C(=O)[C@H]1O[C@H]1C[C@@H](O[C@@H]2C[C@@H](O)[C@@H](O[C@@H]3C[C@](C)(O)[C@H](O)[C@@H](C)O3)[C@@H](C)O2)[C@H](O)[C@@H](C)O1` [Plicamycin], the drug sensitivity score under setting [1] amounted to 1.9 DSS, the drug sensitivity score under setting [2] worked out at 0 DSS and the drug sensitivity score under setting [3] was found to be 3.5 DSS.
For `CNC(=O)c1ccc(N2C(=S)N(c3ccc(C#N)c(C(F)(F)F)c3)C(=O)C23CCC3)cc1F` [RD162], in that order: 0.3 DSS, 2.7 DSS and 0.8 DSS.
In the case of `CCN(c1cc(-c2ccc(CN3CCOCC3)cc2)cc(C(=O)NCc2c(C)cc(C)[nH]c2=O)c1C)C1CCOCC1` [Tazemetostat], the drug sensitivity score runs as follows: under setting [1], 3.8 DSS; under setting [2], 0.8 DSS; under setting [3], 2.2 DSS.
Regarding `COc1cc2ncnc(Oc3cccc(NC(=O)Nc4cc(C(C)(C)C(F)(F)F)on4)c3)c2cc1OC`, the drug sensitivity score reads like this: under setting [1], 4.5 DSS; under setting [2], 0 DSS; under setting [3], 4.2 DSS.
The matching figures for `NCCNc1ccc(NCCN)c2c1C(=O)c1ccncc1C2=O` [Pixantrone]: 0 DSS, 0 DSS and 0 DSS.
